These results are taken from patent US3952051A, “Method for crystallization of diamine dicarboxylate” (Asahi Kasei Kogyo Kabushiki Kaisha, priority 1971, dated 1976).

The data set is described as follows: Size of crystals collected after neutralization.

Consider hexamethylenediamine adipate, for which the “Average size of crystals” value (Example 1, from aqueous medium, pH 7.5, 60°C.) worked out at 700 microns. Further, the “Grain size of collected crystals” value (comparative example, methanol as solvent) is given as “about 250 microns”.
